# Data as given in PMC12457078, “Inhibition of soluble epoxide hydrolase in endotoxin induced pig lung injury” (Frontiers in Pharmacology, 2025).
# “And” between values parts separate entries of the source, which are not always exact repeats. Identical values can stand only once.
# Tested on: endotoxin-induced lung injury
# Test: porcine model of LPS-induced acute lung injury: haemodynamics, ventilation/mechanics, blood gases, P/F, chemistry, temperature, survival
# Type: in vivo, pig
# Design: AF baseline / AF end / Ven. sat end: unit not given here
# Procedure: The animals were bred for purpose at the Forslunda Agricultural School in Umeå, Sweden. The pigs were pairwise kept in 8 m^2 pens before start of experiments and were fed twice daily with a commercially available pig diet without antimicrobials, and with free access to water. Photoperiods were 12:12 h light:dark. Room temperature in their stall was 20 °C ± 1 °C.
# After overnight fasting, but with free access to water and hay, animals were pre-medicated with ketamine (Ketaminol vet® 100 mg/mL; Intervet International B.V, Boxmeer, Netherlands), xylazine (Rompun® vet 20 mg/mL; Bayer Animal Health, Copenhagen, Denmark) and atropine (Atropin Mylan 0.5 mg/mL; Mylan AB, Stockholm, Sweden) by intramuscular injection before an auricular vein was cannulated. Anesthesia was induced with ketamine and midazolam (Midazolam Hameln 5 mg/mL, Hameln Pharmaceuticals, Hameln, Germany) and maintained with ketamine, midazolam, xylazine and fentanyl (Fentanyl 0.05 mg/mL, B. Braun Medical AB, Danderyd, Sweden). The animals were orotracheally intubated and ventilated with tidal volume 8–9 mL/kg, PEEP 8 cmH2O, and a respiratory rate set to achieve an end-tidal carbon dioxide of 5–5.5 kPa.
# One animal served as a pharmacokinetic pilot, with arterial and venous catheters placed in a cut-down in the neck. The remaining 21 animals were used for the randomized study (Figure 1). After intubation and start of mechanical ventilation, a second auricular vein cannula was placed and infusion of either AEPU or placebo according to randomization was started. After 2 h of infusion of AEPU or placebo, an infusion of LPS was started. A bolus of 0.1 mg/kg was administered during 30 min after which the infusion rate was adjusted to 0.01 mg/kg/h. During the time between start of AEPU or placebo and LPS infusion, neck dissection was performed, exposing the v jugularis externa and carotid artery. A pulmonary artery introducer and an arterial cannula were placed in vein and artery respectively, and a pulmonary artery catheter introduced through the introducer and the tip placed in the correct position in the pulmonary artery placement guided by continuous invasive pressure monitoring or, when difficult, assisted by fluoroscopy. All surgical procedures were performed under sterile conditions.
# AEPU was synthesized according to Kim et al. ([Kim et al., 2007]), delivered in 60 mg vials and dissolved in 30 mL pure ethanol as a co-solvent, of which either 20 mL was added to 980 mL of sodium chloride 9 mg/mL or 8 mL–392 mL sodium chloride, creating a solution of 0.04 mg/mL AEPU and 2% ethanol. The placebo infusion was prepared by adding either 20 mL of pure ethanol to 980 mL of sodium chloride 9 mg/mL or 8 mL of pure ethanol to 392 mL sodium chloride, creating a 2% ethanol solution. Each animal received an infusion of either 0.1 mg/kg/h AEPU or the corresponding volume of placebo solution.
# A total of 200 mg of prefabricated lipopolysaccharides (LPS, Escherichia coli serotype 0,111:B4, Sigma-Aldrich (Product no L4130), St. Louis, MO, United States of America) was dissolved in 40 mL of sterile water, carefully mixed and filtered, creating a solution of 5 mg/mL. This preparation was stored frozen (−20 °C) in 1 mL partitions. For each animal, 2 mL of the thawed solution was mixed and diluted in 18 mL of sodium chloride, finally creating a 0.5 mg/mL LPS solution for infusion.
# All animals were monitored with pulse oximetry, heart rate, ECG, systemic arterial blood pressure (ABP), pulmonary arterial pressure (PAP), central venous pressure (CVP) temperature, tidal volumes, respiratory rate and end tidal carbon dioxide. At baseline, and at 3 h, 6 h and at the end of the experiment, pulmonary capillary wedge pressure (PCWP) was measured together with arterial and venous blood gas analyses, as well as cardiac output calculations. […]
# [1] = individual animals, 3 h, listed as sEH-i 950
# [2] = individual animals, 6 h, listed as sEH-i 950
# [3] = individual animals, end, listed as sEH-i 950
# [4] = last available measurement, AEPU group
smiles,measurement,setting,value
CCOCCOCCOCCCCCNC(=O)NC12CC3CC(CC(C3)C1)C2 [Compound 950],PaO2 3 h,[1],22.1 kPa and 20.1 kPa and 17 kPa and 22.7 kPa and 19.3 kPa and 16.7 kPa and 9 kPa and 8.1 kPa and 7.3 kPa and 14.7 kPa
same,SBP 3 h,[1],124 mmHg and 122 mmHg and 103 mmHg and 102 mmHg and 110 mmHg and 101 mmHg and 162 mmHg and 123 mmHg and 78 mmHg and 116 mmHg
same,SPAP 3 h,[1],82 mmHg and 46 mmHg and 45 mmHg and 53 mmHg and 66 mmHg and 58 mmHg
same,Ven. sat 3 h,[1],69 and 79 and 74 and 62 and 58 and 49 and 34
same,CO 6 h,[2],3.2 L/min and 3.3 L/min and 3.1 L/min and 1.7 L/min and 2.4 L/min
same,CVP 6 h,[2],14 mmHg and 16 mmHg and 22 mmHg and 15 mmHg and 26 mmHg and 25 mmHg
same,HR 6 h,[2],170 and 173 and 175 and 138 and 120 and 226 and 116 and 162
same,MAP 6 h,[2],82 mmHg and 60 mmHg and 94 mmHg and 91 mmHg and 66 mmHg and 55 mmHg
same,MPAP 6 h,[2],35 mmHg and 44 mmHg and 42 mmHg and 24 mmHg and 49 mmHg and 41 mmHg and 43 mmHg
same,PCWP 6 h,[2],19 mmHg and 17 mmHg and 18 mmHg and 21 mmHg
same,PaCO2 6 h,[2],5.1 kPa and 5.9 kPa and 6.2 kPa and 5.3 kPa and 5.5 kPa and 4.4 kPa and 6.3 kPa and 8 kPa and 9.4 kPa
same,PaO2 6 h,[2],19.6 kPa and 12.3 kPa and 11.8 kPa and 18.6 kPa and 18.5 kPa and 14.7 kPa and 8.7 kPa and 9.4 kPa and 6.8 kPa and 7.9 kPa
same,SBP 6 h,[2],104 mmHg and 106 mmHg and 119 mmHg and 88 mmHg and 110 mmHg and 100 mmHg and 95 mmHg
same,SPAP 6 h,[2],42 mmHg and 47 mmHg and 48 mmHg and 36 mmHg and 57 mmHg and 44 mmHg and 52 mmHg and 53 mmHg
same,Ven. sat 6 h,[2],57 and 59 and 45 and 73 and 68 and 44 and 46 and 7 and 10
same,MPAP (vid max SPAP),"individual animals, at max SPAP, listed as sEH-i 950",60 mmHg and 52 mmHg and 62 mmHg and 57 mmHg and 84 mmHg and 66 mmHg and 47 mmHg
same,CO end,[3],3.9 L/min and 2.8 L/min and 3.6 L/min and 5.2 L/min and 0 L/min and 1.4 L/min
same,CVP end,[3],17 mmHg and 15 mmHg and 13 mmHg and 20 mmHg
same,HR end,[3],163 and 147 and 150 and 130 and 165 and 160 (0) and 135
same,MAP end,[3],55 mmHg and 56 mmHg and 105 mmHg and 64 mmHg and 67 mmHg and 42 mmHg and 43 mmHg
same,MPAP end,[3],30 mmHg and 50 mmHg and 33 mmHg and 24 mmHg and 40 mmHg and 43 mmHg and 48 mmHg
same,PCWP end,[3],17 mmHg and 22 mmHg and 16 mmHg and 15 mmHg and 25 mmHg
same,PaCO2 end,[3],5.3 kPa and 6.1 kPa and 4.8 kPa and 4.4 kPa and 7.3 kPa and 6.4 kPa
same,PaO2 end,[3],19.9 kPa and 13.4 kPa and 12 kPa and 19.5 kPa and 12.2 kPa and 4.4 kPa and 8.7 kPa
same,SBP end,[3],102 mmHg and 103 mmHg and 116 mmHg and 97 mmHg and 92 mmHg and 66 mmHg and 70 mmHg
same,SPAP end,[3],38 mmHg and 57 mmHg and 43 mmHg and 29 mmHg and 47 mmHg and 49 mmHg and 54 mmHg
same,Ven. sat end,[3],69 and 54 and 58 and 56 and 70 and 19
same,SPAP max,"individual animals, maximum, listed as sEH-i 950",73 mmHg and 71 mmHg and 91 mmHg and 70 mmHg and 72 mmHg and 84 mmHg and 80 mmHg and 75 mmHg
same,Bilirubin,[4],11.1 (8.6–18.8) μmol/L
same,CVP,[4],16 (15–17) mmHg
same,Compliance,[4],7.9 (7.3–9.7) ml/cmH2O
same,Creatinine,[4],133 (102–152) μmol/L
same,Hemoglobin,[4],116 (107–128) g/L
same,MAP,[4],66 (55–97) mmHg
same,MPAP,[4],46 (35–50) mmHg
same,P/F,[4],22 (11–42) kPa
same,PCWP,[4],18 (16–21) mmHg
same,PIP,[4],33 (29–37) cmH20
same,PVR,[4],643 (390–1057) dynes*sec/cm^5
same,PaCO2,[4],5.8 (4.9–7.1) kPa
same,SVR,[4],1314 (1089–2375) dynes*sec/cm^5
same,SvO2,[4],55 (25–66) %
same,Temperature,[4],38.5 (38.0–40.1) °C
same,pH,[4],7.16 (7.07–7.26)
same,Mortalitet: Tidpunkt,"time of death or termination, individual animals, listed as sEH-i 950",6 h and 9 h and 8 h
